Publication PMC8470988, “Glucosylation of (±)-Menthol by Uridine-Diphosphate-Sugar Dependent Glucosyltransferases from Plants” (Molecules, 2021)

Target: T1, UGT93Y1 (Camellia sinensis, UniProt A0A4S4F2U3)
T1 construct: gene TEA_008645; UGT 467 aa, fusion about 80 kDa; His29, Asp134, PSPG box Trp342-Gln385, TSS 413-415
Experiment: UDP Glo glycosyltransferase assay
Assay type: biochemical
Settings: UDP-glucose as donor; 30 °C; 0-1000 µM menthol; kinetic fit with substrate inhibition, two-site sequential model with identical dissociation constants

T1 sequence (A0A4S4F2U3 entry or part of it): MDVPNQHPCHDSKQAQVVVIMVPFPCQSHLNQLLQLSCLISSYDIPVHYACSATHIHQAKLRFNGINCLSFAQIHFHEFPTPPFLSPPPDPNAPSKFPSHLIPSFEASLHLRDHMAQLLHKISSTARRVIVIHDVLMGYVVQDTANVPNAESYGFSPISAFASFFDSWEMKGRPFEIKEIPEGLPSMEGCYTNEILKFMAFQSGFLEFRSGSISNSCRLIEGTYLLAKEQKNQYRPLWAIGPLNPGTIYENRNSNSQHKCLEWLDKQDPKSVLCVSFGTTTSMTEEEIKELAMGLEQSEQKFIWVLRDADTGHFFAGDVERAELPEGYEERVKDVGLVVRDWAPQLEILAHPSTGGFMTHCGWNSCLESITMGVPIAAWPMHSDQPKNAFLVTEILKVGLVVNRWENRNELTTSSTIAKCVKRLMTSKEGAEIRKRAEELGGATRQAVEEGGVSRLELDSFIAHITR

Which Kd does the source give for CC1CCC(C(C)C)C(O)C1 (racemic) [(±)-menthol] here?
The Kd was 453 µM.
